Reference: patent publication US20260083769A1, “2-Aminopropane-1,3-Diol-Capped Cationic Peptoids for Nucleic Acid Delivery” (NUTCRACKER THERAPEUTICS, INC., priority 2022, published 2026)
Where two headings read alike, the source gives them in different places. Where a SMILES comes first, the peptide text is derived from it. [ ]: non-standard residue; d: D form. N(2-ethylhexyl)Gly = CCCCC(CC)CNCC(=O)O; Gly(N-dodecyl) = CCCCCCCCCCCCNCC(=O)O; N(CH(CH2OH)2)Gly = O=C(O)CNC(CO)CO; N(octyl)Gly = CCCCCCCCNCC(=O)O; NDecylGly = CCCCCCCCCCNCC(=O)O

Columns and labels:
[1] = Zeta potential of delivery vehicles; assay type: physicochemical; conditions: Table 5; delivery vehicle, pH 7 buffer; in mV (unit assumed)
Procedure: (§1) In one particular instance, the size and polydispersity (PDI) of delivery vehicles was measured by dynamic light scattering in PBS using a DynaPro® plate reader III. The zeta potential of delivery vehicles was determined using Nano-ZS™ particle analyzer. Zeta sample was diluted to 30 uM total lipid in a weakly buffered solution of 10 mM HEPES, 10 mM MES, 10 mM ammonium acetate pH 7. Measurements were collected in duplicate for over 30 run with the voltage manually set to […]

[2] = Particle size and polydispersity (PDI) of delivery vehicles by dynamic light scattering; assay type: physicochemical; conditions: Table 5; delivery vehicle comprising the peptoid, Formulation D22, fLuc mRNA
Procedure: The resulting delivery vehicle complexes were evaluated by dynamic light scattering (DLS) to determine the volume average particle size/diameter (nm) and the size polydispersity index (PDI) within the delivery vehicle complex.
Particle size. Particle sizes and size distributions were measured using a Wyatt DynaPro® Plate Reader III. In general, formulated samples were diluted to 2 ng/μL in 100 µL PBS. Data is reported as the hydrodynamic diameter (in nm) of the cumulant fit of the correlation function, and the polydispersity of that measurement.
as §1

[3] = RBC hemolysis as metric for fusogenicity; assay type: cell-based; conditions: sheep red blood cells (RBCs), 5% v/v, Table 5, delivery vehicle, 37° C. 45 min
Procedure: RBC hemolysis was used as a metric for fusogenicity of LNPs at low pH. […] Particles were diluted to […] total lipid in well with 5% RBC solution and incubated at 37° C. for 45 min. Supernatant was collected and absorbance read on a microplate reader at 425 nm. Fusion was normalized to a fully lysed sample with 2% Triton™ and a buffer-only control. % hemolysis=100*[(ABS T-background)−(ABS sample-background)/(ABS T-background)].

[4] = Percent encapsulated mRNA, RiboGreen assay; assay type: physicochemical; conditions: Table 5; delivery vehicle comprising the peptoid, Formulation D22, fLuc mRNA
Procedure: Percent encapsulation. The percentage of mRNA encapsulated within the delivery vehicle complexes containing Fluc mRNA was determined using a modified RiboGreen® assay. In general, formulated mRNA samples were diluted to 500 ng/ml in Tris-EDTA buffer with or without Triton-X™. RiboGreen® (Invitrogen) was added at a 200-fold dilution, and the plate was incubated for 5 minutes. Fluorescence was measured at Ex. […]/Em. 520 nm and encapsulated mRNA was calculated by taking the ratio of fluorescence for non-lysed particles versus lysed particles.
The mRNA concentration and the percentage of encapsulated mRNA were determined using a fluorescence-based Quant-iT™ RiboGreen® RNA Reagent Kit using a literature procedure. To determine the mRNA concentration, delivery vehicles were incubated with 2% Triton™ X-100 for 10 min to release entrapped mRNA, followed by addition of RiboGreen® RNA reagent. The fluorescence intensity of mRNA-RiboGreen® reagent complex (excitation at 485 nm and emission at 530 nm) was detected using a microplate reader. The ratio of fluorescence without and with Triton™ X-100 were used to calculate the percentage of encapsulated mRNA.

[5] = Apparent particle pKa, TNS fluorescence assay; assay type: physicochemical; conditions: Table 5; apparent particle pKa of delivery vehicle
Procedure: The apparent particle pKa was assessed by a TNS fluorescence assay. Briefly, particles were diluted to 130 uM total lipid in TNS buffer ranging in pH 3-11 for 10 minutes with […] of TNS probe. The fluorescence was measured at room temperature in a plate reader ex 320/em 445. Fluorescence intensity was normalized to the minimal and maximal values and the pKa was determined by a 3 parameter fit to determine the half maximum of the curve.

[6] = pH 5, read-out: Hemolysis at pH 5
[7] = pH 7, read-out: Hemolysis at pH 7

| SMILES | Zeta Potential [1] | PDI [2] | Particle Size (nm) [2] [nm] | hemolysis at 45 min, 150 mM total lipid [3, 6] [%] | hemolysis at 45 min, 150 mM total lipid [3, 7] [%] | % Encapsulation [4] [%] | pKa (TNS) [5] |
| --- | --- | --- | --- | --- | --- | --- | --- |
| CCCCCCCCCCCCN(CC(=O)N(CCCCCCCCCC)CC(N)=O)C(=O)CN(CCCCCCCCCC)C(=O)CN(CCCCCCCCCC)C(=O)CN(CCCCCCCCCCCC)C(=O)CN(CCCCCCCCCC)C(=O)CNC(CO)CO [Compound 27] (H-[N(CH(CH2OH)2)Gly][NDecylGly][Gly(N-dodecyl)][NDecylGly][NDecylGly][Gly(N-dodecyl)][NDecylGly]-NH2) | 1.84 | 0.214 | 107.6 | 12.4 | 9.1 | 87.9 | 5.48 |
| CCCCCCCC/C=C\CCCCCCCCN(CC(=O)N(CCCCCCCCCC)CC(=O)N(CCCCCCCC/C=C\CCCCCCCC)CC(=O)N(CCCCCCCCCC)CC(N)=O)C(=O)CNC(CO)CO [Compound 6] | −0.785 | 0.39 | 71.3 | 21.5 | 60.6 | 85.9 | 6.373 |
| CCCCCCCCCCCCN(CC(=O)N(CCCCCCCCCCCC)CC(=O)N(CCCCCCCC)CC(=O)N(CCCCCCCCCCCC)CC(=O)N(CCCCCCCCCCCC)CC(=O)N(CCCCCCCC)CC(N)=O)C(=O)CNC(CO)CO [Compound 33] (H-[N(CH(CH2OH)2)Gly][Gly(N-dodecyl)][Gly(N-dodecyl)][N(octyl)Gly][Gly(N-dodecyl)][Gly(N-dodecyl)][N(octyl)Gly]-NH2) | −2.12 | 1 | 165.8 | 0.9 | 0.4 | −1.8 | 5.935 |
| CCCCCCCC/C=C\CCCCCCCCN(CC(=O)N(CCCCCCCC)CC(=O)N(CCCCCCCC/C=C\CCCCCCCC)CC(=O)N(CCCCCCCC)CC(N)=O)C(=O)CNC(CO)CO [Compound 44] | 2.39 | 0.194 | 98.1 | 51.6 | 95.8 | 76.4 | 6.936 |
| CCCCCCCCCCCCN(CC(N)=O)C(=O)CN(CCCCCCCCCCCC)C(=O)CN(CCCCCCCCCCCC)C(=O)CN(CCCCCCCCCCCC)C(=O)CNC(CO)CO [Compound 21] | 2.7 | 0.262 | 66.4 | 35.8 | 59.5 | 81.2 | 5.406 |
| CCCCCCCC/C=C\CCCCCCCCN(CC(=O)N(CCCCCC)CC(=O)N(CCCCCC)CC(=O)N(CCCCCC)CC(=O)N(CCCCCCCC/C=C\CCCCCCCC)CC(=O)N(CCCCCC)CC(=O)N(CCCCCC)CC(=O)N(CCCCCC)CC(N)=O)C(=O)CNC(CO)CO [Compound 9] | −1.6 | 0.14 | 94.9 | 1.1 | 0.1 | 95.2 | 5.906 |
| CCCCCCCCCCCCN(CC(N)=O)C(=O)CN(CC(CC)CCCC)C(=O)CN(CCCCCCCCCCCC)C(=O)CN(CCCCCCCCCCCC)C(=O)CN(CC(CC)CCCC)C(=O)CN(CCCCCCCCCCCC)C(=O)CNC(CO)CO (stereo not drawn) [Compound 40] (H-[N(CH(CH2OH)2)Gly][Gly(N-dodecyl)][N(2-ethylhexyl)Gly][Gly(N-dodecyl)][Gly(N-dodecyl)][N(2-ethylhexyl)Gly][Gly(N-dodecyl)]-NH2) | −7.48 | Multimodal | 270.5 | 0.5 | -0.1 | 55.9 | 4.883 |
| CCCCCCN(CC(N)=O)C(=O)CN(CCCCCC)C(=O)CN(CCCCCC)C(=O)CN(CCCCCC)C(=O)CN(CCCCCC)C(=O)CN(CCCCCC)C(=O)CN(CCCCCC)C(=O)CN(CCCCCC)C(=O)CNC(CO)CO [Compound 14] | −3.14 | Multimodal | 2228.3 | 9.1 | 0.2 | 57.3 | 6.825 |
| CCCCCCN(CC(N)=O)C(=O)CN(CC(CC)CCCC)C(=O)CN(CCCCCC)C(=O)CN(CC(CC)CCCC)C(=O)CN(CCCCCC)C(=O)CN(CC(CC)CCCC)C(=O)CN(CCCCCC)C(=O)CN(CC(CC)CCCC)C(=O)CNC(CO)CO (stereo not drawn) [Compound 13] | −5.17 | 0.102 | 122.4 | 1.8 | 0.6 | 82.0 | 5.686 |
| CCCCCCCCCCCCN(CC(=O)N(CCCCCC)CC(=O)N(CCCCCC)CC(=O)N(CC(=O)N(CCCCCCCCCCCC)CC(=O)N(CCCCCC)CC(=O)N(CCCCCC)CC(N)=O)CC(CC)CCCC)C(=O)CN(CC(CC)CCCC)C(=O)CNC(CO)CO (stereo not drawn) [Compound 15] | −8 | 0.111 | 106.6 | 0.9 | 0.6 | 84.5 | 5.909 |
| CCCCC(CC)CN(CC(N)=O)C(=O)CN(CC(CC)CCCC)C(=O)CN(CC(CC)CCCC)C(=O)CN(CC(CC)CCCC)C(=O)CNC(CO)CO (stereo not drawn) [Compound 24] | −1.59 | 0.12 | 66.9 | 100 | 99.9 | 97.6 | 6.43 |
| CCCCCCCCCCN(CC(=O)N(CC(N)=O)CC(CC)CCCC)C(=O)CN(CCCCCCCC)C(=O)CN(CC(CC)CCCC)C(=O)CN(CCCCCCCCCC)C(=O)CN(CCCCCCCC)C(=O)CNC(CO)CO (stereo not drawn) [Compound 28] (H-[N(CH(CH2OH)2)Gly][N(octyl)Gly][NDecylGly][N(2-ethylhexyl)Gly][N(octyl)Gly][NDecylGly][N(2-ethylhexyl)Gly]-NH2) | −5.98 | 0.089 | 86.6 | 15.1 | 5.6 | 82.2 | 5.844 |
